Literature values, collected in patent publication US10654860B2, “Tricyclic rho kinase inhibitors” (BRISTOL-MYERS SQUIBB COMPANY, priority 2016, dated 2020).
Where two headings read alike, the source gives them in different places.

What was measured:
[1] = test system: congestive heart failure in Dahl salt-sensitive rats; conditions: cited from earlier work
[2] = test system: spontaneously hypertensive rat, renal hypertensive rat and deoxycortisone acetate salt hypertensive rat models; conditions: cited from earlier work
[3] = test system: neointimal formation; conditions: rats, balloon injury model; cited from earlier work
[4] = test system: IL-1 beta-induced coronary stenosis; conditions: long term treatment, porcine model; cited from earlier work
[5] = test system: rat stroke model; conditions: cited from earlier work

| Compound | ventricular hypertrophy, fibrosis and function [1] | blood pressure ([2]; control rats) | blood pressure ([2]; three rat models of hypertension) | neointimal formation [3] | coronary constrictive remodeling [4] | coronary stenosis [4] | infarct size [5] | neurologic deficit [5] |
| --- | --- | --- | --- | --- | --- | --- | --- | --- |
| C[C@@H](N)[C@H]1CC[C@H](C(=O)Nc2ccncc2)CC1 [Example Y-27632, Y-27632] | improve | only a minor effect | significantly decrease | inhibited | – | – | – | – |
| O=S(=O)(c1cccc2cnccc12)N1CCCNCC1 [fasudil] | – | – | – | – | promote a regression | progressively reduce | reduce | reduce |
